Laboratory results taken from patent publication US6383488B1, “Pre-M/M epitopes of dengue virus, synthetic peptides, chimeric proteins and their use” (priority 1997, dated 2002).
“Also recorded” adds a separate entry of the source.

B1: PD33 (protein)
chain: MALVELKVPDIGGHENVDIIAVEVNVGDTIAVDDTLITLDLESVALTPHSGMGLETRAETWMSSEGAWKHAQRVESWILRNPRFLEMDVPAEVAGVVKEVKVKVGDKISEGGLIVVVEAEGTAAAPKAEAAAAPAQEAPKAAAPAPQAAQFGGSADAEYDVVVLGGGPGGYSAAFAAADEGLKVAIVERYKTLGGVCLNVGCIPSKALLHNAAVIDEVRHLAANGIKYPEPELDIDMLRAYKDGVVSRLTGGLAGMAKSRKVDVIQGDGQFLDPHHLEVSLTAGDAYEQAAPTGEKKIVAFKNCIIAAGSRVTKLPFIPEDPRIIDSSGALALKEVPGKLLIIGGGIIGLEMGTVYSTLGSRLDVVEMMDGLMQGADRDLVKVWQKQNEYRFDNIMVNTKTVAVEPKEDGVYVTFEGANAPKEPQRYDAVLVAAGRAPNGKLISAEKAGVAVTDRGFIEVDKQMRTNVPHIYAIGDIVGQPMLAHKAVHEGHVAAENCAGHKAYFDARVIPGVAYTSPEVAWVGETELSAKASGRKITKANFPWAASGRAIANGCDKPFTKLIFDAETGRIIGGGIVGPNGGDMIGEVCLAIEMGCDAADIGKTIHPHPTLGESIGMAAEVALGTCTDLPPQKKK

Tests used:
[1] = system: anti-peptide antibodies in sera of Dengue patients; test: Indirect ELISA to detect anti-peptide antibodies, human sera; type: binding; conditions: 118 sera of Dengue patients diluted 1/200; for Percentage of positivity of human sera to peptide: peptide coated at 10 µg/ml
Protocol: Peptides 19-6, 20-1, 20-2, 20-3 were fixed to the plates in a 10 m g/ml concentration in coating buff they were incubated at 4 C. overnight Sera were added diluted 1/200 in PBS-Tween 20. Finally, total human /peroxidase anti-immunoglobuline conjugate was added, and subsequently, the substrate (orthophenylendiamine, H2O2, 0.05 M phosphate citrate buffer, pH 5) was added. The reading was carried out in an ELISA reader at 492 nm and the cut-off value for each peptide was determined.
The sera used were from subjects having viral clinical infection that was serologically diagnosed as Dengue by the techniques of Inhibition of the hemagglutination (Clarke, D. H. y Casals, J. 1958. Techniques for hemagglutination and hemagglutination—inhibition with Arthropod Borne Virus. Am. J. Trop. Med. Hyg. 7 p.561) and ELISA of inhibition (Vzquez, S., Fernndez, R. 1989. Utilizacin de un mtodo de ELISA de Inhibicin en el diagnstico serolgico de dengue. Rev. Cub. Med. Trop. 41(1) p18-26) for total anti-dengue antibodies.
The study induded 118 sera from patents of the epidemics occurred in Cuba 1981, Panama 1994 and Costa Rica 1994. Dengue virus 2 was isolated in these epidemics, besides serotype 1 and 4 in Costa Rica; they were classified according to the titers of inhibiting antibodies of hemagglutination in cases of primary and secondary infections.

[2] = system: live, mouse-adapted dengue-2 virus (strain A15); test: Protection assay, intracranial challenge of immunized mice; type: in vivo, Balb/c mice; conditions: mice immunized with conjugated peptides; 100 LD50 intracranial; observed up to 21 days; Fisher's test, p<0,05
Protocol: Male Balb/c mice of 4-6 weeks old were immunized with 50 mg of the peptide-BSA conjugate intraperitoneally. In addition, two immunization schemes were performed, one with BSA and the other with PBS. A total of 4 inoculations were carried out, each of them 15 days apart. The Freund's Complete Adjuvant was used in the first doses, and the Freund's Incomplete Adjuvant in the others. A blood sample was extracted from the retro-orbital vein seven days after the last inoculation.
Mice were challenged 7 days after the last immunization by intracraneal injection with an dilution of 1/2500 (corresponding to 100 LD50 lethal doses) of live, mouse-adapted dengue-2 virus (strain A15). […] Data were tested for statistical significance using Fisher's test.

[3] = system: spleen T lymphocytes cultured with dengue 2 virus; test: In vitro blastogenesis assay of spleen T lymphocytes from peptide-immunized mice; type: cell-based, BALB/c mice; conditions: mice immunized with non-conjugated peptides; cells cultured with dengue 2 virus
Protocol: T cells from 19-6 and 19-5 immunized mice proliferated in an in vitro blastogenesis assay when they were cultured with the dengue 2 virus. […] It could contain a T cell cryptic epitope, being recognized in the free form of peptide but not like a result of the immunodominant epitopes presentation and processing of the virus in a natural infection.
FIG. 5. Proliferative response to dengue 2 virus antigens (at concentrations of 10, 20 and 40 m g/ml) of spleen T cells from peptides-immunized mice 19-6, 19-5 and 20-2.

[4] = system: Dengue virus serotype 3 (D3); test: In vitro plaque-reduction neutralization test (PRNT) of anti-peptide sera, serotype D3; type: cell-based; conditions: sera of Balb/c mice immunized with peptide-BSA conjugate; titer = dilution giving 50% plaque number reduction; BHK-21 cells
[5] = system: Dengue virus serotype 1 (D1); test: In vitro plaque-reduction neutralization test (PRNT) of anti-peptide sera, serotype D1; type: cell-based; conditions: sera of Balb/c mice immunized with peptide-BSA conjugate; titer = dilution giving 50% plaque number reduction; BHK-21 cells
[6] = system: Dengue 2 virus (strain A 15); test: In vitro plaque-reduction neutralization test (PRNT) of anti-peptide sera, serotype D2; type: cell-based; conditions: sera of Balb/c mice immunized with peptide-BSA conjugate; titer = dilution giving 50% plaque number reduction; BHK-21 cells
Protocol: Neutralization technique was carried out according to Morens (Morens, D. M. et al. 1985. Simplified plaque reduction neutralization assay for dengue viruses by semimicro methods in BHK-21 cells: Comparison of the BHK suspension test with standard plaque reduction neutralization. J. Clin. Microbiol. 22 p.250).
Dilutions of anti-peptide sera and of anti-BSA controls and negative sera from 1/10 to 1/640 were prepared. Each dilution of sera was put into contact with a dilution of the virus (strain A 15 of Dengue 2) having 15-20 PFU/50 ml.
The mixture was incubated at 37 C. during 1 hour. A total of 50 ml of each mixture were added in triplicate to BHK-21 cells in plates of 24 wells, and they were incubated in a CO2 incubator at 37 C. during 4 hours. Then, 0.5 ml of carboxymethylcellulose-containing medium were added, and it was incubated again for several days considering the viral serotype used. After these days tinction and the count of lysis plaques produced by the virus were carried out.
Titer was expressed in each case as the dilution at which it was obtained the 50% of plaque number reduction.

[7] = system: four Dengue virus serotypes; test: Induction of neutralizing antibodies (summary statement); type: cell-based; conditions: against the four Dengue virus serotypes; immunized mice
Protocol: Peptides were inoculated in Balb/c mice both conjugated or not to a carrier protein. The sera obtained after immunization with the conjugated peptides were tested by in vitro neutralization by reducing the number of plaques and by ELISA. We also studied the active protection against a Dengue 2 viral challenge in the immunized mice.

[8] = system: Dengue virus serotype 4 (D4); test: In vitro plaque-reduction neutralization test (PRNT) of anti-peptide sera, serotype D4; type: cell-based; conditions: sera of Balb/c mice immunized with peptide-BSA conjugate; titer = dilution giving 50% plaque number reduction; BHK-21 cells
synthetic peptides = test: ELISA of sera from mice immunized with fusion proteins, against the synthetic peptides; type: binding; conditions: mouse immunization with semipurified fusion proteins
Excerpt: Mouse immunization with PD33 and PD34 fusion proteins semipurified by a non-denaturalizing protocol, has elicited high titers against them in ELISA (up to 1/100 000), and at the same time antibodies with titers up to 1/4000 in ELISA against the synthetic peptides have been obtained.

Row | Molecule | Average of the reactivity index (optical density of the sample/cut-off value) [1] | Percentage of positivity of human sera to peptide [1] | Level of protection (survival) after Dengue 2 virus challenge [2] | Virus-specific proliferative response of spleen T lymphocytes [3] | Anti-peptide neutralization titer, D3 [4] | Anti-peptide neutralization titer, D1 [5] | Anti-peptide neutralization titer, D2 [6] | Induction of neutralizing antibody production [7] | Anti-peptide neutralization titer, D4 [8] | ELISA antibody titers against the synthetic peptides (synthetic peptides)
1 | NSTSTWVTYGTCTTTGEHRREKRSV [B 20-1] | 1.52 | 79.6% | statistically significant; also recorded: statistically significative level of protection | – | – | – | – | – | – | –
2 | CEDTITYKCPLLRQNEPEDIDCW [B 20-2] | 1.57 | 77.1% | – | did not elicit a significant proliferative response | – | – | – | – | – | –
3 | RQNEPEDIDCWCNSTSTWVTYGTCTTTGEHRREKRS [B 19-5] | – | – | statistically significant; also recorded: statistically significative level of protection | Virus-specific proliferative responses were demonstrated; also recorded: proliferated | – | – | – | – | – | –
4 | LTTRNGEPHMIVMRQEKGKSLLFKTGDGV [B 19-6] | 1.07 | 56.8% | statistically significant; also recorded: statistically significative level of protection | Virus-specific proliferative responses were demonstrated; also recorded: proliferated | 1/60 | 1/100 | 1/180 | able to induce neutralizing antibody production | 1/160 | –
5 | LETRTETWMSSEGAWKHAQRIE [B 20-3] | 1.49 | 83.1% | – | – | 1/80 | 1/110 | 1/80 | able to induce neutralizing antibody production | 1/80 | –
6 | B1 | – | – | – | – | – | – | – | – | – | up to 1/4000
